From patent publication US10626144B2, “Peptide derivatives and uses thereof” (Nosopharm, priority 2014, dated 2020)
Square brackets hold non-standard residues; d marks the D form. Peptide text beside a SMILES is read from it. Dab(3S-OH) = NC[C@H](O)[C@H](N)C(=O)O; ΔZArg = N=C(N)NCC/C=C(\N)C(=O)O; dOrn = NCCC[C@@H](N)C(=O)O

How the values were obtained:
[1] = tested on: Acinetobacter baumannii ATCC 19606; experiment: MIC, broth microdilution (CLSI), reference strain; settings: CAMHB
[2] = Tolerability in mice, single i.v. bolus dose; settings: female, CD-1, mouse, in vivo, iv
Ec #1 (NCTC13476) = experiment: MIC / resistance profile, multidrug-resistant strain; settings: multidrug-resistant E. coli NCTC13476
Kp #2 (DUB) = experiment: as above; settings: multidrug-resistant K. pneumoniae DUB
[3] = tested on: Klebsiella pneumoniae ATCC 43816; experiment: MIC, broth microdilution (CLSI), reference strain; settings: CAMHB
Kp #1 (NCTC13439) = experiment: MIC / resistance profile, multidrug-resistant strain; settings: multidrug-resistant K. pneumoniae NCTC13439
Kp #3 (A33504) = experiment: as above; settings: multidrug-resistant K. pneumoniae A33504
Kp #5 (6560) = experiment: as above; settings: multidrug-resistant K. pneumoniae 6560
Ec #5 (DSM22315) = experiment: as above; settings: multidrug-resistant E. coli DSM22315
[4] = tested on: Escherichia coli ATCC 25922; experiment: MIC, broth microdilution (CLSI), reference strain; settings: CAMHB
Ec #4 (GUE) = experiment: MIC / resistance profile, multidrug-resistant strain; settings: multidrug-resistant E. coli GUE
[5] = biological target: N-type calcium channels (Cav2.2) (Rattus norvegicus (Rat), UniProt Q02294); experiment: biochemical; type: binding; settings: read-out: IC50 Cav2.2
[6] = tested on: Pseudomonas aeruginosa ATCC 27853; experiment: MIC, broth microdilution (CLSI), reference strain; settings: CAMHB
[7] = tested on: Staphylococcus aureus ATCC 13709; experiment: MIC, broth microdilution (CLSI), reference strain; settings: CAMHB
Ec #3 (EGB957) = experiment: MIC / resistance profile, multidrug-resistant strain; settings: multidrug-resistant E. coli EGB957
[8] = tested on: Klebsiella pneumoniae ATCC BAA2470; experiment: Murine peritonitis/sepsis model with analog 24.66 (Example 12); settings: for Alive animals at 24 hrs: N=8
Protocol: Female CD-1 mice (weight, 25 g; Charles River) were used throughout the study. Six groups of 8 mice were inoculated by intraperitoneal (i.p.) injection of 0.5 ml Klebsiella pneumoniae ATCC BAA2470 suspension containing 10^8.1 CFU/ml in 0.9% sterile saline and 5% (wt/vol) mucin. One hour after bacterial challenge on day 0, mice were treated by intravenous (i.v.) route with the antibiotic solutions formulated in 0.9% sterile saline.
One group was administered with single bolus dose of tigecycline at 20 mg/kg. One group received no treatment.

Kp #4 (ATCC BAA1904) = experiment: MIC / resistance profile, multidrug-resistant strain; settings: multidrug-resistant K. pneumoniae ATCC BAA1904

## C[C@H](NC(=O)[C@@H](NC(=O)[C@@H](N)CCCCN)[C@@H](O)CN)C(=O)NCC(=O)N[C@H](CCCN)C(=O)N1CCC[C@H]1C(=O)N[C@@H](Cc1cnc[nH]1)C(=O)N[C@@H](CCCCN)C(=O)N/C(=C\CCNC(=N)N)C(=O)O [24.66] (H-K[Dab(3S-OH)]AG[dOrn]PHK[ΔZArg]-OH)
[1]
  Ab: MIC Acinetobacter baumannii ATCC 19606: − (>32 μg/mL)
[2]
  LD50 at 5 days: 494 mg/kg
Ec #1 (NCTC13476)
  MIC Ec#1: + (≤32 μg/mL)
Kp #2 (DUB)
  MIC Kp#2: ++ (≤8 μg/mL)
[3]
  Kp: MIC Klebsiella pneumoniae ATCC 43816: ++ (≤8 μg/mL)
Kp #1 (NCTC13439)
  MIC Kp#1: ++ (≤8 μg/mL)
Kp #3 (A33504)
  MIC Kp#3: ++ (≤8 μg/mL)
Kp #5 (6560)
  MIC Kp #5: ++ (≤8 μg/mL)
Ec #5 (DSM22315)
  MIC Ec#5: + (≤32 μg/mL)
[4]
  Ec: MIC Escherichia coli ATCC 25922: + (≤32 μg/mL)
Ec #4 (GUE)
  MIC Ec#4: + (≤32 μg/mL)
[5]
  IC50: > 300 nM
[6]
  Pa: MIC Pseudomonas aeruginosa ATCC 27853: − (>32 μg/mL)
[7]
  Sa: MIC Staphylococcus aureus ATCC 13709: + (≤32 μg/mL)
Ec #3 (EGB957)
  MIC Ec#3: + (≤32 μg/mL)
[8]; 6 mg/kg i.v. single bolus
  Alive animals at 24 hrs: 0
[8]; 12.5 mg/kg i.v. single bolus
  Alive animals at 24 hrs: 2
[8]; 25 mg/kg i.v. single bolus
  Alive animals at 24 hrs: 5
[8]; 50 mg/kg i.v. single bolus
  Alive animals at 24 hrs: 7
[8]; single i.v. bolus one hour after i.p. challenge, 10^8.1 CFU/ml, observed 24 hours
  ED50: 20.4 mg/kg
Kp #4 (ATCC BAA1904)
  MIC Kp#4: ++ (≤8 μg/mL)
